# Key:
# [1] = tested on: another kinase; conditions: ref www.nature.com/ncomms/2015/150810/ncomms8920; cited from earlier work
# Source text: page 15: reasons explained, are complicated to interpret and they are not anticipated to be as effective as many would envisage. […] Now high profile preclinical studies show ...
# [2] = tested on: PKGIα disulfide dimer; conditions: HEK cells, murine aortic rings or mesenteric blood vessels; ref Burgoyne et al. Hypertension 60, 1301-1308 (2012); Rudyk et al. Circulation 126, 287-295 (2012); cited from earlier work
# [3] = 37 °C; value taken for Ca2+ calibration, no reference given; read-out: Kd of Fluo-3; cited from earlier work
# Protocol: To measure cytosolic Ca^2+ levels, cells were loaded with the acetoxymethyl (AM) ester form Fluo-3 (Molecular Probes) and excited continuously at 488 nm. Emitted fluorescence was measured with a 515 nm long-pass filter. Raw fluorescent signals were calibrated off-line as per equation (1). […] Background fluorescence was subtracted from all raw signals. Custom-written Excel routines were used to measure Ca^2+ transient amplitude, diastolic Ca^2+ levels, rate of decay of the Ca^2+ transient and SR Ca^2+ content. SR Ca^2+ content was estimated fr ...
# [4] = tested on: PKGIα (analogue-sensitive C42S/M438G), cGMP-activated; assay: Chemical genetic phosphoproteomic screen, cGMP-activated PKGIα C42S/M438G versus unactivated control; type: biochemical, human PKGIα; substrates in rat heart homogenate; conditions: cGMP activation; of 29 substrates with significant change
# Source text: We employed a chemical genetic method[18] to identify direct substrates of cGMP-activated PKGIα and disulfide bond-activated PKGIα in heart tissue. This method involves mutation of the ATP binding-site of the kinase of interest so that it can accept a ‘bulky' N6-alkylated ATP analogue for example, N6^−phenylethyl ATP. An oxygen atom on the γ phosphate is also replaced with a sulfur atom—giving an N6-alkylated ATPγS analogue—so that the mutant kinase catalyses the transfer of a thiophosphate group (–PO3S^3−) to its substrates instead of a phosphate. The thiophosphate group is nucleophilic, providing a basis for substrates of the analogue-sensitive kinase to be purified by a ‘covalent capture' protocol. LC–MS/MS allows identification of the substrate and localization of the phosphorylation site. Thiophosphorylated proteins can also be detected with a thiophosphate ester-specific antibody. Analogue-sensitive mutants of PKGIα and PKGIα C42S (which cannot form the activating intermolecular disulfide bond) were generated by mutating Met438 in the ATP-binding domain to Gly. This mutation was chosen based on a previous study where an analogue-sensitive mutant of the catalytic subunit of PKA—which shares sequence homology with PKGIα—was engineered. Detailed protocols are given below.
# A pCDNA3 expression vector encoding human FLAG-tagged PKGIα (ref. [41]) underwent site-directed mutagenesis to generate constructs for untagged WT, C42S, M438G and C42S/M438G PKGIα. Mutations were introduced using the QuikChange II Site-Directed Mutagenesis Kit (Agilent) according to the manufacturer's instructions. Expression and purification of the PKGIα mutants was performed according to a published method[42] as follows: suspension FreeStyle 293-F cells (ThermoFisher Scientific) were transfected with the appropriate PKGIα construct using the stable cationic polymer polyethyleneimine (PEI) as a transfection reagent. After ∼72 h cells were harvested by centrifugation (400g; room temperature; 15 min), re-suspended in ice cold lysis buffer (25 mM sodium phosphate buffer pH 6.8; 10 mM ethylenediaminetetraacetic acid (EDTA); 100 mM NaCl; 10 mM benzamidine hydrochloride; and 10 mM dithiothreitol (DTT)) and frozen in liquid N2. Cells were lysed by three freeze (liquid N2)-thaw (37 °C) cycles and the lysate was clarified by centrifugation at 140,000g and 4 °C for 30 min. The soluble protein fraction was loaded onto a pre-equilibrated 8-(2-aminoethylamino)adenosine-3′, 5′-cyclic monophosphate column (8-AEA-cAMP agarose; BioLog, Germany) followed by washing with 20 column volumes of lysis buffer. The column was further washed with lysis buffer +3 M NaCl (5 column volumes) and PKGIα was then eluted with lysis buffer +150 mM NaCl and 500 μM cAMP. Removal of cAMP and buffer exchange was achieved by extensive dialysis against 25 mM sodium phosphate buffer pH 6.8, 2 mM EDTA and 100 mM NaCl. For ITC analysis, WT PKGIα was incubated with 10 mM lipoic acid for 2 h on ice to obtain ∼100% disulfide dimer (confirmed by SDS-PAGE). Oxidized WT or C42S PKGIα was further purified by size exclusion chromatography using a HiLoad 16/600 Superdex 200 pg column (GE Healthcare) with 50 mM sodium phosphate buffer pH 7.4 and 100 mM NaCl. Proteins were concentrated using Amicon Ultra centrifugal filter devices (Merck Millipore). DTT was absent in storage buffers so that the activating disulfide bond would not be reduced and so that the PKGIα M438G mutant would be oxidized to disulfide dimer in the presence of air (confirmed by SDS-PAGE). Protein concentration was determined by Pierce BCA assay (ThermoFisher) and enzyme activity was confirmed using the Omnia kinase assay kit (ThermoFisher).
# Male Wistar rats (9–10 weeks; body weight 300–330 g) were euthanized by intraperitoneal injection of sodium pentobarbitone (200 mg kg^−1) with heparin (500 USP units). […]
# [5] = tested on: PKGIα Cys42 disulfide bond; conditions: ref [3], [4]; cited from earlier work
# [6] = tested on: WT PKGIα; assay: Oxidation of recombinant WT PKGIα to disulfide dimer (SDS-PAGE); type: biochemical, human; conditions: 10 mM lipoic acid, 2 h on ice; confirmed by SDS-PAGE
# Protocol: A pCDNA3 expression vector encoding human FLAG-tagged PKGIα (ref. [41]) underwent site-directed mutagenesis to generate constructs for untagged WT, C42S, M438G and C42S/M438G PKGIα. Mutations were introduced using the QuikChange II Site-Directed Mutagenesis Kit (Agilent) according to the manufacturer's instructions. Expression and purification of the PKGIα mutants was performed according to a published method[42] as follows: suspension FreeStyle 293-F cells (ThermoFisher Scientific) were transfected with the appropriate PKGIα construct using the stable cationic polymer polyethyleneimine (PEI) as a transfection reagent. After ∼72 h cells were harvested by centrifugation (400g; room temperature; 15 min), re-suspended in ice cold lysis buffer (25 mM sodium phosphate buffer pH 6.8; 10 mM ethylenediaminetetraacetic acid (EDTA); 100 mM NaCl; 10 mM benzamidine hydrochloride; and 10 mM dithiothreitol (DTT)) and frozen in liquid N2. Cells were lysed by three freeze (liquid N2)-thaw (37 °C) cycles and the lysate was clarified by centrifugation at 140,000g and 4 °C for 30 min. […] Protein concentration was determined by Pierce BCA assay (ThermoFisher) and enzyme activity was confirmed using the Omnia kinase assay kit (ThermoFisher).
# [7] = tested on: PLN threonine 17; conditions: cardiac myocytes exposed to hydrogen peroxide; no reference given; cited from earlier work
# [8] = tested on: PKGIα (VASP phosphorylation) in mouse embryonic fibroblasts; conditions: ref Muller et al. Free Radic Biol Med 53, 1574-1583 (2012); cited from earlier work
# Source text: This transgenic model was developed by the Sadoshima lab (Newark, USA) and the data are included in a PhD thesis (2015) by Daniel Stubbert from this lab. We have amended the manuscript so that it now states that the ...
smiles,measurement,setting,value
"CC(=O)N[C@@H](CS)C(=O)O [NAC, N-acetylcysteine]",effect on oxidation of another kinase,[1],promoted the oxidation of that target
CC(=O)OC[C@H]1O[C@@H]([S-])[C@H](OC(C)=O)[C@@H](OC(C)=O)[C@@H]1OC(C)=O.CCP(CC)CC.[Au+] [auranofin],PKGIα disulfide dimer upon treatment,[2],accumulation of PKGIα disulfide dimer
Cc1ccc(N(CC(=O)O)CC(=O)O)c(OCCOc2cc(-c3c4cc(Cl)c(=O)cc-4oc4cc(O)c(Cl)cc34)ccc2N(CC(=O)O)CC(=O)O)c1 [Fluo-3],Kd,[3],864 nM
"Nc1nc2c(ncn2[C@@H]2O[C@@H]3COP(=O)(O)O[C@H]3[C@H]2O)c(=O)[nH]1 [cGMP, cyclic guanosine monophosphate, reference compound]",number of proteins with significantly increased phosphorylation when PKGIα was activated,[4],28
same,effect on formation of the Cys42 intermolecular disulfide bond,[5],inhibits formation of the Cys42 intermolecular disulfide bond
O=C(O)CCCC[C@@H]1CCSS1 (racemic) [lipoic acid],disulfide dimer formed,[6],~100%
OO [hydrogen peroxide],PLN threonine 17 phosphorylation,[7],will become phosphorylated
same,effect of pre-oxidation of PKGIα on its activation by cGMP,[8],slightly attenuated
